This assay has as its target NAMPT enzyme (Homo sapiens (Human), UniProt P43490). In words: Enzyme Assay and NMN Detection (NAMPT reaction, fluorescence detection of NMN). Type of assay: biochemical. The conditions noted are these: NAMPT activation, NMN formation. The method in brief: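 NMN formed was read at ex380/em460 after acetophenone/KOH derivatization and formic acid addition, using a same-day calibration curve. Final conditions: NAMPT 16 nM, nicotinamide 5 uM, PRPP 6.25 uM, ATP 120 uM, pyrophosphatase 0.04 U/ml, pH 7.5 HEPES buffer with MgCl2 and TCEP, 2 h at room temperature.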

We go through 34 compounds from US11452717B2, “Small molecule activators of nicotinamide phosphoribosyltransferase (NAMPT) and uses thereof” (Sanford Burnham Prebys Medical Discovery Institute, priority 2017, dated 2022).

Molecules are shown by their SMILES. pEC50: −log10 of the molar value.

The pEC50 is the negative decadic logarithm of the EC50, by convention in mol/L.

Chain of NAMPT enzyme (P43490 whole entry, species assumed): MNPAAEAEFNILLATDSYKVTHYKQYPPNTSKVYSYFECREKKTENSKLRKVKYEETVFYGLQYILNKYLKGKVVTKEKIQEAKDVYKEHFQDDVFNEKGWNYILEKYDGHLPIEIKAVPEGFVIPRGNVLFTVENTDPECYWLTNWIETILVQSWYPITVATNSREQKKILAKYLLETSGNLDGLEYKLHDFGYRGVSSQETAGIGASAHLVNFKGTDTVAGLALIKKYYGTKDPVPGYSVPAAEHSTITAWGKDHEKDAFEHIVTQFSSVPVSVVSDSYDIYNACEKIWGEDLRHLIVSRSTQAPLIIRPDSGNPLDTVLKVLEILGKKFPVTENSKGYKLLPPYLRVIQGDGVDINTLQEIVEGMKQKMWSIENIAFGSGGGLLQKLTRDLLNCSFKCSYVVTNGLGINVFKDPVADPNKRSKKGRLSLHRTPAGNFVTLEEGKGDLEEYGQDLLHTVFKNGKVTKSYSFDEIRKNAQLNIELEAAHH

For the compound `O=C(NCc1cn[nH]c1)Nc1ccc(Nc2nc(-c3cccc(F)c3)cs2)cc1` [1-{4-[4-(3-Fluoro-phenyl)-thiazol-2-ylamino]-phenyl}-3-(1H-pyrazol-4-ylmethyl)-urea], the pEC50 (Table B-4) is 5.70 to 7.00.

With `O=C(NCc1cn[nH]c1)Nc1ccc(Nc2nc(-c3ccc(Cl)cc3)cs2)cc1` [1-{4-[4-(4-Chloro-phenyl)-thiazol-2-ylamino]-phenyl}-3-(1H-pyrazol-4-ylmethyl)-urea], the pEC50 (Table B-4) is 5.70 to 7.00.

Turning to `O=C(NCc1cn[nH]c1)Nc1ccc(Nc2nc(-c3ccc(F)cc3)cs2)cc1` [1-{4-[4-(4-Fluoro-phenyl)-thiazol-2-ylamino]-phenyl}-3-(1H-pyrazol-4-ylmethyl)-urea], where the note is “Table B-4”, the pEC50 was 5.70 to 7.00.

On to `O=C(NCc1ccncc1)Nc1ccc(NS(=O)(=O)c2ccccc2Cl)cc1` [2-Chloro-N-[4-(3-pyridin-4-ylmethyl-ureido)-phenyl]-benzenesulfonamide], for which the pEC50 (Table B-2) is more than 7.00.

The compound `COc1ccccc1S(=O)(=O)Nc1ccc(NC(=O)NCc2ccncc2)cc1` [2-Methoxy-N-[4-(3-pyridin-4-ylmethyl-ureido)-phenyl]-benzenesulfonamide] gave a pEC50 (Table B-2) of 5.70 to 7.00.

Consider `COC(=O)c1ccccc1CNS(=O)(=O)c1ccc(NC(=O)NCc2ccncc2)cc1` [2-{[4-(3-Pyridin-4-ylmethyl-ureido)-benzenesulfonylamino]-methyl}-benzoic acid methyl ester], for which the pEC50 (Table B-2) is more than 7.00.

Compound `O=C(NCc1ccncc1)Nc1cccc(C(=O)O)c1` [3-(3-(Pyridin-4-ylmethyl)ureido)benzoic acid] gave a pEC50 (Table B-2) of less than 4.70.

Under “Table B-2”, `O=C(NCc1ccncc1)Nc1ccc(NS(=O)(=O)c2cccc(Cl)c2)cc1` [3-Chloro-N-[4-(3-pyridin-4-ylmethyl-ureido)-phenyl]-benzenesulfonamide] gave a negative logarithm of the EC50 (pEC50) of more than 7.00.

`COc1cccc(S(=O)(=O)Nc2ccc(NC(=O)NCc3ccncc3)cc2)c1` [3-Methoxy-N-[4-(3-pyridin-4-ylmethyl-ureido)-phenyl]-benzenesulfonamide] gave a pEC50 (Table B-2) of more than 7.00.

Take `COC(=O)c1cccc(CNS(=O)(=O)c2ccc(NC(=O)NCc3ccncc3)cc2)c1` [3-{[4-(3-Pyridin-4-ylmethyl-ureido)-benzenesulfonylamino]-methyl}-benzoic acid methyl ester]: the pEC50 (Table B-2) is 5.70 to 7.00.

Take `CCOC(=O)c1ccc(N2CCN(Cc3ccncc3)C2=O)cc1` [4-(2-Oxo-3-pyridin-4-ylmethyl-imidazolidin-1-yl)-benzoic acid ethyl ester]: the negative-log EC50 (pEC50) (Table B-3) was less than 4.70.

In the case of `O=C(O)c1ccc(N2CCN(Cc3ccncc3)C2=O)cc1` [4-(2-oxo-3-pyridin-4-ylmethyl-imidazolidin-1-yl)-benzoic acid], the pEC50 (Table B-3) is less than 4.70.

As for `O=C(NCc1cn[nH]c1)Nc1ccc(C(=O)Nc2ccccc2Cl)cc1` [4-(3-((1H-pyrazol-4-yl)methyl)ureido)-N-(2-chlorophenyl)benzamide], the pEC50 (Table B-1) is 5.70 to 7.00.

As to `COc1ccccc1NC(=O)c1ccc(NC(=O)NCc2cn[nH]c2)cc1` [4-(3-((1H-pyrazol-4-yl)methyl)ureido)-N-(2-methoxyphenyl)benzamide], the pEC50 (Table B-1) is 5.70 to 7.00.

The compound `COc1cccc(NC(=O)c2ccc(NC(=O)NCc3cn[nH]c3)cc2)c1` [4-(3-((1H-pyrazol-4-yl)methyl)ureido)-N-(3-methoxyphenyl)benzamide] showed a pEC50 (Table B-1) of 5.70 to 7.00.

Under “Table B-1”, `O=C(NCc1cn[nH]c1)Nc1ccc(C(=O)Nc2ccc(Cl)cc2)cc1` [4-(3-((1H-pyrazol-4-yl)methyl)ureido)-N-(4-chlorophenyl)benzamide] gave a pEC50 of 5.70 to 7.00.

Under “Table B-1”, `COc1ccc(NC(=O)c2ccc(NC(=O)NCc3cn[nH]c3)cc2)cc1` [4-(3-((1H-pyrazol-4-yl)methyl)ureido)-N-(4-methoxyphenyl)benzamide] had a pEC50 of 5.70 to 7.00.

`O=C(NCc1ccncc1)Nc1ccc(C(=O)NCCN2CCCC2)cc1` [4-(3-(Pyridin-4-ylmethyl)ureido)-N-(2-(pyrrolidin-1-yl)ethyl)benzamide] had a pEC50 (Table B-2) of 5.30 to 5.70.

`O=C(NCc1ccncc1)Nc1ccc(C(=O)Nc2ccccc2OC(F)(F)F)cc1` [4-(3-(Pyridin-4-ylmethyl)ureido)-N-(2-(trifluoromethoxy)phenyl)benzamide] had a negative logarithm of the EC50 (pEC50) (Table B-2) of 5.70 to 7.00.

Take `Cc1cccc(NC(=O)c2ccc(NC(=O)NCc3ccncc3)cc2)c1` [4-(3-(Pyridin-4-ylmethyl)ureido)-N-(m-tolyl)benzamide]: under “Table B-2”, the negative logarithm of the EC50 (pEC50) was 5.70 to 7.00.

The compound `Cc1ccccc1NC(=O)c1ccc(NC(=O)NCc2ccncc2)cc1` [4-(3-(Pyridin-4-ylmethyl)ureido)-N-(o-tolyl)benzamide] gave a negative-log EC50 (pEC50) (Table B-2) of 5.70 to 7.00.

As for `Cc1ccc(NC(=O)c2ccc(NC(=O)NCc3ccncc3)cc2)cc1` [4-(3-(Pyridin-4-ylmethyl)ureido)-N-(p-tolyl)benzamide], where the note is “Table B-2”, the negative-log EC50 (pEC50) is 5.30 to 5.70.

For the compound `O=C(NCc1ccncc1)Nc1ccc(C(=O)Nc2cccs2)cc1` [4-(3-(Pyridin-4-ylmethyl)ureido)-N-(thiophen-2-yl)benzamide], the pEC50 (Table B-2) is 5.30 to 5.70.

Compound `NC(=O)c1ccc(NC(=O)NCc2ccncc2)cc1` [4-(3-(Pyridin-4-ylmethyl)ureido)benzamide] gave a pEC50 (Table B-2) of 4.70 to 5.30.

Turning to `O=C(NCc1ccncc1)Nc1ccc(C(=O)O)cc1` [4-(3-(Pyridin-4-ylmethyl)ureido)benzoic acid], the negative-log EC50 (pEC50) (Table B-2) was less than 4.70.

On to `O=C(NCc1ccncc1)Nc1ccc(C(=O)Nc2cccc(OC(F)(F)F)c2)cc1` [4-(3-(pyridin-4-ylmethyl)ureido)-N-(3-(trifluoromethoxy)phenyl)benzamide], for which the pEC50 (Table B-2) was 5.30 to 5.70.

`O=C(NCc1ccncc1)Nc1ccc(C(=O)Nc2ccc(OC(F)(F)F)cc2)cc1` [4-(3-(pyridin-4-ylmethyl)ureido)-N-(4-(trifluoromethoxy)phenyl)benzamide] gave a pEC50 (Table B-2) of 5.70 to 7.00.

For the compound `O=C(NCc1ccncc1)Nc1ccc(C(=O)Nc2cncnc2)cc1` [4-(3-(pyridin-4-ylmethyl)ureido)-N-(pyrimidin-5-yl)benzamide], under “Table B-2”, the negative logarithm of the EC50 (pEC50) is 5.70 to 7.00.

In turn, `O=C(NCc1ccncc1)Nc1ccc(C(=O)NC2CCOC2)cc1` (stereo not shown) [4-(3-(pyridin-4-ylmethyl)ureido)-N-(tetrahydrofuran-3-yl)benzamide] gave a negative-log EC50 (pEC50) (Table B-2) of 4.70 to 5.30.

`CCOC(=O)c1ccc(NC(=O)N(C)Cc2ccccc2)cc1` [4-(3-Benzyl-3-methyl-ureido)-benzoic acid ethyl ester] gave a pEC50 (Table B-3) of less than 4.70.

Regarding `O=C(NCc1ccncc1)Nc1ccc(S(=O)(=O)NC2CCCc3ccccc32)cc1` (stereo not shown) [4-(3-Pyridin-4-ylmethyl-ureido)-N-(1,2,3,4-tetrahydro-naphthalen-1-yl)-benzenesulfonamide], for the setting “Table B-2”, the pEC50 was more than 7.00.

As to `O=C(NCc1ccncc1)Nc1ccc(S(=O)(=O)NCCN2CCCC2)cc1` [4-(3-Pyridin-4-ylmethyl-ureido)-N-(2-pyrrolidin-1-yl-ethyl)-benzensulfonamide], where the note is “Table B-2”, the negative-log EC50 (pEC50) was 5.30 to 5.70.

Where the note is “Table B-2”, `O=C(NCc1ccncc1)Nc1ccc(S(=O)(=O)NCc2ccccc2OC(F)(F)F)cc1` [4-(3-Pyridin-4-ylmethyl-ureido)-N-(2-trifluoromethoxy-benzyl)-benzenesulfonamide] showed a negative-log EC50 (pEC50) of more than 7.00.

`O=C(NCc1ccncc1)Nc1ccc(S(=O)(=O)NCc2ccccc2C(F)(F)F)cc1` [4-(3-Pyridin-4-ylmethyl-ureido)-N-(2-trifluoromethyl-benzyl)-benzenesulfonamide] showed a pEC50 (Table B-2) of 5.70 to 7.00.
